In US10556902B2 (Asceneuron SA, priority 2016, dated 2020):

The compounds below were run against His-Tagged hOGA (human O-GlcNAcase) (Homo sapiens (Human), UniProt O60502) (assay: Human O-GlcNAcase enzyme inhibition assay). Details: OGA IC50 (M), FL-GlcNAc substrate, pH 6.5, activity classes defined in μM.
Assay type: biochemical
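Further: reactions contained 20 nM His-tagged hOGA enzyme with 10 µM FL-GlcNAc substrate.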
Experimental: Then, 20 nM of His-Tagged hOGA and 10 μM of FL-GlcNAc (Fluorescein mono-beta-D-(2-deoxy-2-N-acetyl) glucopyranoside; Marker Gene Technologies Inc, M1485) were added to the 384-well plate for a final volume of 20 μl.

His-Tagged hOGA (human O-GlcNAcase), sequence (O60502 whole entry): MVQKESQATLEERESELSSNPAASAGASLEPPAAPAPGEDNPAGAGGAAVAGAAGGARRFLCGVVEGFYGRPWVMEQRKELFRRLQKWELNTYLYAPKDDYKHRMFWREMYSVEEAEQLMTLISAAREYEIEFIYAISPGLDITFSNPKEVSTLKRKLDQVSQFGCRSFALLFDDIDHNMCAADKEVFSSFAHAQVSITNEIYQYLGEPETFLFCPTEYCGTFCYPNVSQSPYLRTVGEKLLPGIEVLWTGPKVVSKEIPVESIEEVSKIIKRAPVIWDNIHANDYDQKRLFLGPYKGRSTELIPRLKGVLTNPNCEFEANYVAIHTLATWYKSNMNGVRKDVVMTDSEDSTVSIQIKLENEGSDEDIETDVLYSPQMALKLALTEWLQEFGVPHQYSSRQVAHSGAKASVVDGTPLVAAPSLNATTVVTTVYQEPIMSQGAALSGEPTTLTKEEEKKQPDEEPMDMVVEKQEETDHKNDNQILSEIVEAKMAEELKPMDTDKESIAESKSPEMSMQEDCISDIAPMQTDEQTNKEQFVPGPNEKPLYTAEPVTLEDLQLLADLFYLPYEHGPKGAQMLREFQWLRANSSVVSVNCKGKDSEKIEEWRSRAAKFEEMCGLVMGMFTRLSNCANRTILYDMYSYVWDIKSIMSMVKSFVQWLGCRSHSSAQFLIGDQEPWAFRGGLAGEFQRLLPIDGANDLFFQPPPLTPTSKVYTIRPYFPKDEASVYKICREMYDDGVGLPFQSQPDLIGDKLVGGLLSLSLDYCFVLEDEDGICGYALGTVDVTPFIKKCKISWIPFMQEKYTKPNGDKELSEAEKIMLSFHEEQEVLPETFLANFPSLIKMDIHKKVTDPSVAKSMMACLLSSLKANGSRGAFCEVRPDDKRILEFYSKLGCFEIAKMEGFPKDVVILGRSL

SMILES | IC50 [M]
CC(c1ccc2nccnc2c1)N1CCN(c2ccc(=O)[nH]n2)CC1 (stereo not shown) [Example 39] | 5e-08 to 2e-07

Same assay, conditions: OGA enzyme inhibition assay; FL-GlcNAc substrate, pH 6.5; activity classes defined in μM; read-out: OGA IC50

SMILES | IC50 [M]
CC(c1ccc2c(c1)OCC2)N1CCC(n2cc(F)cn2)CC1 (racemic) [Example 30, 1-(1-(2,3-dihydrobenzofuran-6-yl)ethyl)-4-(4-fluoro-1H-pyrazol-1-yl)piperidine] | 2e-07 to 1e-06
CNC(=O)c1cccc(N2CCN(C(C)c3ccc4nccnc4c3)CC2)n1 (racemic) [Example 68, N-methyl-6-(4-(1-(quinoxalin-6-yl)ethyl)piperazin-1-yl) picolinamide] | 5e-08 to 2e-07

Continued, values first:

IC50 [M] | SMILES
< 5e-08 | CC(O)c1ccc(N2CCN(C(C)c3ccc4c(c3)OCC4)CC2)nn1 (racemic) [Example 35, 1-(6-(4-(1-(2,3-dihydrobenzofuran-6-yl)ethyl)piperazin-1-yl)pyridazin-3-yl)ethan-1-ol]
< 5e-08 | CNC(=O)c1nnc(N2CCN(C(C)c3ccc4c(c3)OCC4)CC2)s1 (racemic) [Example 118, 5-(4-(1-(2,3-dihydrobenzofuran-6-yl)ethyl)piperazin-1-yl)-N-methyl-1,3,4-thiadiazole-2-carboxamide]
5e-08 to 2e-07 | COC(=O)c1cnc(N2CCN(C(C)c3ccc4nccnc4c3)CC2)nc1 (racemic) [Example 105, Methyl 2-(4-(1-(quinoxalin-6-yl)ethyl)piperazin-1-yl)pyrimidine-5-carboxylate]
< 5e-08 | CC(=O)Nc1nnc(N2CCN(C(C)c3ccc4c(c3)OCC4)CC2)s1 (single isomer, unassigned) [Example 109]
